Data as given in patent publication US7981444B2, “Dendritic polymers with enhanced amplification and interior functionality” (Dendritic Nanotechnologies, Inc., priority 2004, dated 2011).

Tests used:
[1] = Thermal Gravimetric Analysis (TGA); type: physicochemical; conditions: in nitrogen, scan 20 to 520° C., ramp rate 10 degrees per minute
Experimental: Thermal Gravimetric Analysis (TGA)
Thermal gravimetric data were obtained on a Universal V3.9A TA Instrument. Temperature scan range was from 20 to 520° C. with a ramp rate of 10 degrees per minute. Sample sizes were typically about 10 mg of solid product.
In comparison, curves 1 and 2 show the thermal degradation profiles of products of Examples 7D and 13, respectively.
TGA Under Same Conditions as Comparative Example I for Various Dendrimers of Formula (I) and PAMAM

[2] = cited from earlier work

COC(=O)C1CC(=O)N(CCN(CCN2CC(C(=O)OC)CC2=O)CC(O)Cn2c(=O)n(CC(O)CN(CCN3CC(C(=O)OC)CC3=O)CCN3CC(C(=O)OC)CC3=O)c(=O)n(CC(O)CN(CCN3CC(C(=O)OC)CC3=O)CCN3CC(C(=O)OC)CC3=O)c2=O)C1 (stereo not shown) [Example 33]
Onset Temp. (° C.) [1]: 320 °C
Temp. (° C.) at 50% wt loss [1]: 407 °C
Temp. (° C.) at Residue [1]: 500+ ° C.

tris(hydroxymethyl)amino methane
pKa value [2]: 8.10
